The text below walks through data of patent publication US20220089550A1, “CRYSTALLINE FORMS OF (S)-2-(7-CYANO-1H-BENZIMIDAZOL-1 YL)-N-{1-[4-(1-CYANO-1-METHYLETHYL)PHENYL]ETHYL}ACETAMIDE” (NEOMED INSTITUTE - INSTITUT NEOMED, priority 2019, published 2022).

Data set [1] is described as follows: Thermal stability (TGA, variable temperature XRPD). Format: physicochemical. The protocol: Crystals of Form C can be converted (3) to crystals of Form A. For example, crystals of Form C are converted to crystals of Form A by heating the crystals of Form C to 155° C. under nitrogen. Furthermore, crystals of Form C can be converted (5) to crystals of Form F. For example, crystals of Form C are converted to crystals of Form F by heating to 136° C. under nitrogen. […] Further heating of this sample generates a mixture of crystals of Form A and Form F.
Compound 1 appears to be chemically stable up to the decomposition temperature of about 250° C. […] The solid-state stability of the crystalline forms is compared by evaluating the relative “thermodynamic stability” of the crystalline forms and the interconversion between crystalline forms upon heating or when slurrying.
TGA was conducted for each crystalline form using a TA Q500/Q5000 TGA from TA Instruments. For each analysis, the TGA cell/sample chamber was purged with ultra-high purity nitrogen gas. The sample crystal was placed into the bottom of an open aluminium pan. […] The weight was plotted versus the measured sample temperature. The data were reported in % of the initial weight. The TGA thermograms for Forms A to F were obtained and can be seen at FIGS. 7 to 12.

The target of a further data set is VR1 receptor (Homo sapiens, UniProt Q8NER1). To be noted: whole cells, intracellular Ca2+ imaging, assay of WO 2008018827; read-out: IC50, antagonist of capsaicin responses; cited from earlier work.
Chain of VR1 receptor (Q8NER1 whole entry): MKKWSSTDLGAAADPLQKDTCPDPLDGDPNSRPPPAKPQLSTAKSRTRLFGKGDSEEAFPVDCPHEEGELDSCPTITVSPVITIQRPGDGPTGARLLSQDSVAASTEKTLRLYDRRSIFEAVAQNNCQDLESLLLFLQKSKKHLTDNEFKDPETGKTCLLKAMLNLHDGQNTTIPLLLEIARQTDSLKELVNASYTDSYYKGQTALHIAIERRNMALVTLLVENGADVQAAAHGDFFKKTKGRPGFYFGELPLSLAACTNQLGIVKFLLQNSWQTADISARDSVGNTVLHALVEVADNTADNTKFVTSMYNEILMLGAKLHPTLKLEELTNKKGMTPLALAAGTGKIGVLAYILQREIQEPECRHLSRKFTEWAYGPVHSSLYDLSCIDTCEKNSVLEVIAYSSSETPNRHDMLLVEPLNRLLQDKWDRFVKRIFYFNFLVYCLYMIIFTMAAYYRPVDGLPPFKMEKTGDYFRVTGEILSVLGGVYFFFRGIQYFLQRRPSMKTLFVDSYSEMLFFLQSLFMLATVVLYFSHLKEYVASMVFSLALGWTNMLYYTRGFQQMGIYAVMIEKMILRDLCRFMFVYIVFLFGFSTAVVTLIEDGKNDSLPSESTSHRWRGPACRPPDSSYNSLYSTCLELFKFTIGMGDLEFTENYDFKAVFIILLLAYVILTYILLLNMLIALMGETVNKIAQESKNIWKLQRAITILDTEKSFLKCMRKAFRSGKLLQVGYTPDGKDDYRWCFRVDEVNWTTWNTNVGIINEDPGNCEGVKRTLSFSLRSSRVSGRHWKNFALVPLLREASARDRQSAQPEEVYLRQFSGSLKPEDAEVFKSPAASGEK
Data set [2] in a line: Slurry conversion of Form A/Form E and Form A/Form F mixtures in IPA. In kind it is physicochemical. As to conditions: equal-mass mixtures with Form E or Form F in pre-saturated IPA, room temperature, 48 h. Here is the method:
Excess amounts of crystals of Form A were added to 2 mL of IPA. The mixture was magnetically stirred at a speed of 750 rpm at room temperature overnight to obtain a saturated solution. The saturated solution was filtered on a PTFE membrane (0.45 μm) to remove the excess solids.
An equal-mass physical mixture of crystals of Form A and Form E (6 mg of each Form) was added into 0.5 mL of the pre-saturated IPA solution and magnetically stirred at a speed of 750 rpm for 48 h. Solids were isolated from the suspension by centrifugation and an XRPD test was performed (shown at FIG. 19(b)).
Similarly, an equal-mass physical mixture of crystals of Form A and Form F (6 mg of each Form) was added into 0.5 mL of the pre-saturated IPA solution and magnetically stirred at a speed of 750 rpm for 48 h. Solids were isolated from the suspension by centrifugation and an XRPD test was performed (shown at FIG. 19(c)).
In the case of both mixtures, only crystals of Form A were isolated after stirring for 48 h.

A short description of data set [3]: Approximate solubility of crystals of Form A at room temperature. As to conditions: thermodynamic from solid. In kind it is physicochemical. Here is the method:
Approximately 2 mg solids were added into a 3-mL glass vial. Solvents as listed in Table 7 were then added stepwise into the vials until the solids were dissolved or a total volume of 1 mL was reached. The results are summarized in Table 7, and were used to guide solvent selection in the polymorph screening.

The nature of data set [4]: Stability tests for Form A (temperature, relative humidity, compression; XRPD). In kind it is physicochemical. The protocol:
Experiments were conducted to evaluate the stability of Form A under various temperature, relative humidity and compression conditions.

Converted amounts (≈) assume the structure as drawn.

The IC50 is the concentration needed to halve the response being measured. Consider `C[C@H](NC(=O)Cn1cnc2cccc(C#N)c21)c1ccc(C(C)(C)C#N)cc1` [Compound 1, (S)-2-(7-Cyano-1H-benzimidazol-1-yl)-N-{1-[4-(1-cyano-1-methylethyl)phenyl]ethyl}acetamide], for which, in data set [1] (TGA, 10° C./min, nitrogen), the “Decomposition temperature (chemically stable up to)” value is “about 250 °C”. The half-inhibitory concentration (IC50) at VR1 receptor was 41 to 49 nM.
Usually solubility stands for how much of the substance goes into solution per volume. Regarding `C[C@H](NC(=O)Cn1cnc2cccc(C#N)c21)c1ccc(C(C)(C)C#N)cc1` [Form A, (S)-2-(7-Cyano-1H-benzimidazol-1-yl)-N-{1-[4-(1-cyano-1-methylethyl)phenyl]ethyl} acetamide], the “Thermodynamic stability by slurry conversion” value in data set [2] was “thermodynamically stable form at room temperature among the three anhydrate Forms”. For the same compound, the solubility in data set [3] (25 °C, organic solvent or mixture, 1,4-Dioxane, room temperature) was greater than 36 mg/mL; in data set [3] (25 °C, organic solvent or mixture, 2-MeTHF, room temperature), greater than 36 mg/mL; in data set [3] (25 °C, organic solvent or mixture, ACN, room temperature), greater than 40 mg/mL; in data set [3] (25 °C, organic solvent or mixture, Acetone, room temperature) it was greater than 38 mg/mL; in data set [3] (25 °C, organic solvent or mixture, Anisole, room temperature), 7.3 to 22 mg/mL (≈ 19.7 to 59.2 mM); in data set [3] (25 °C, organic solvent or mixture, CHCl3, room temperature), greater than 42 mg/mL. Moreover, the solubility in data set [3] (25 °C, organic solvent or mixture, DCM, room temperature) was greater than 40 mg/mL; in data set [3] (25 °C, organic solvent or mixture, DMAc, room temperature), greater than 36 mg/mL; in data set [3] (25 °C, organic solvent or mixture, DMSO, room temperature) it was greater than 44 mg/mL; in data set [3] (25 °C, organic solvent or mixture, EtOAc, room temperature), 22 to 44 mg/mL (≈ 59.2 to 118 mM); in data set [3] (25 °C, organic solvent or mixture, EtOH, room temperature), greater than 40 mg/mL; in data set [3] (25 °C, organic solvent or mixture, IPA, room temperature), 7 to 21 mg/mL (≈ 18.8 to 56.5 mM). Further, the solubility in data set [3] (25 °C, organic solvent or mixture, IPAc, room temperature) was 6.7 to 20 mg/mL (≈ 18 to 53.8 mM); in data set [3] (25 °C, organic solvent or mixture, MEK, room temperature), greater than 40 mg/mL; in data set [3] (25 °C, organic solvent or mixture, MIBK, room temperature), 18 to 36 mg/mL (≈ 48.5 to 96.9 mM); in data set [3] (25 °C, organic solvent or mixture, MTBE, room temperature), less than 1.8 mg/mL; in data set [3] (25 °C, organic solvent or mixture, THF, room temperature), greater than 40 mg/mL; in data set [3] (25 °C, organic solvent or mixture, Toluene, room temperature), less than 2.1 mg/mL. Moreover, the solubility in data set [3] (25 °C, organic solvent or mixture, n-Heptane, room temperature) was less than 2.2 mg/mL; in data set [3] (organic solvent or mixture, MeOH, room temperature (25° C.±2° C.)) it was greater than 42 mg/mL; in data set [3] (water, 25 °C, H2O, room temperature), less than 2.1 mg/mL. Besides, in data set [1] (heating, variable temperature XRPD / DSC), the “Temperature up to which the crystalline form is stable” value is “about 167.9 °C”. In data set [4] (aggressive grinding for 2 minutes), the “Effect of grinding on XRPD” value is “minor decrease in the relative intensity of the peaks”. Besides, the “Stability of the crystal structure (XRPD) on stressed samples” value in data set [4] (various temperature, relative humidity and compression conditions, compared to Form A as synthesized) is recorded as “crystalline structure remained generally similar”.
